Data reported in article PMC5228208 (MedChemComm, 2016).

Columns and labels:
HIV = details: natural products; reported previously, ref [10a]; cited from earlier work
HIV RT RNaseH = assay type: binding, HIV-1; details: natural product

Compound: manicol
- Cell-Based Assays Antiviral EC50 (HIV): n.p. (‘n.p.’ indicates no protective effects (<35% cell viability throughout assay))

Compound: CC(C)c1ccc(O)c(=O)c(O)c1 [β-thujaplicinol]
- Cell-Based Assays Antiviral EC50 (HIV): n.p. (‘n.p.’ indicates no protective effects (<35% cell viability throughout assay))
- HIV RT RNaseH Assays ThermoFluor ΔTm (HIV RT RNaseH): 2.34 °C
